Experimental data taken from patent US9119879B2, “Oral care compositions comprising a quinone and a further antimicrobial agent” (Colgate-Palmolive Company, priority 2010, dated 2015).

Assays:
[1] = system: A. viscosus biofilm; assay: Single species A. viscosus biofilm assay (Biofilm Eradication Concentration, BEC50); format: cell-based; details: for BEC50 of Active + 50 ppm TBHQ: active combined with 50 ppm TBHQ; for BEC50 of Active Alone: lowest concentration with greater than 50% reduction in biofilm biomass relative to control, TBHQ tested at 50 ppm
Experimental: TBHQ and a series of actives were tested in single species of A. viscosus biofilm assay.

[2] = system: A. viscosus; assay: Minimum inhibitory concentration (MIC) of TBHQ; format: cell-based
[3] = system: P. gingivalis; assay: Minimum inhibitory concentration (MIC) of TBHQ; format: cell-based
[4] = system: F. nucleatum; assay: Minimum inhibitory concentration (MIC) of TBHQ; format: cell-based
[5] = system: common pathogens; assay: Antimicrobial activity relative to known antimicrobial agents; format: cell-based
[6] = system: PGE2; assay: Anti-inflammatory efficacy in cells triggered by Heat Killed P. gingivalis (HKPG): PGE2 level; format: cell-based, human
Experimental: (§1) The anti-inflammatory efficacy of TBHQ in neat solution against several inflammation cytokines was evaluated. Human fibroblast (HEPM) cells or human macrophage (U937) cells were used in these tests. Inflammation was triggered by Heat Killed P. gingivalis (HKPG). TBHQ at various doses was co-incubated with cells treated with HKPG, and the levels of inflammatory markers were observed.

[7] = system: IL-1b; assay: Anti-inflammatory efficacy in cells triggered by HKPG: IL-1b level; format: cell-based, human
Experimental: as §1

[8] = system: IL-6; assay: Anti-inflammatory efficacy in cells triggered by HKPG: IL-6 level; format: cell-based, human
Experimental: as §1

[9] = system: TNF-α; assay: Anti-inflammatory efficacy in cells triggered by HKPG: TNF-α level; format: cell-based, human
Experimental: as §1

[10] = TBHQ 10 ppm, HKPG-treated cells
[11] = TBHQ 100 ppm, HKPG-treated cells

Q: With `[Cl][Sn][Cl]` [Stannous chloride] as the molecule, how does the “BEC50 of Active + 50 ppm TBHQ” value [1] read?
A: 39 ppm

Q: What about the “BEC50 of Active Alone” value [1] of the same molecule?
A: 156.3 ppm

Q: For `CC(C)(C)c1cc(O)ccc1O` [TBHQ, 2-t-butyl-p-hydroquinone], which MIC [2] is on record?
A: 62.5 ppm

Q: What about the MIC [3] of the same molecule?
A: 62.5 ppm

Q: And the MIC [4]?
A: 62.5 ppm

Q: What about the “antimicrobial activity, times lower than known antimicrobial agent” value ([5]; relative to cetylpyridinium chloride (CPC)) of the same molecule?
A: 60 times

Q: And the “antimicrobial activity, times lower than known antimicrobial agent” value ([5]; relative to triclosan)?
A: 20 times

Q: What about the “reduction in biofilm biomass” value ([1]; TBHQ alone at 12.5 ppm) of the same molecule?
A: ≤ 50%

Q: And the “reduction in biofilm biomass” value ([1]; TBHQ alone at 50 ppm)?
A: ≤ 50%

Q: What about the BEC50 ([1]; Table 3, TBHQ at 12.5 ppm, alone or with zinc oxide slurry) of the same molecule?
A: Not measurable

Q: What about the “BEC50 of Active Alone” value [1] of the same molecule?
A: Not measurable

Q: And the PGE2 level ([6]; TBHQ 0.9 ppm, HKPG-treated cells)?
A: 1323 pg/mL

Q: And the PGE2 level ([6]; TBHQ 1.8 ppm, HKPG-treated cells)?
A: 1378 pg/mL

Q: What about the PGE2 level ([6]; TBHQ 3.9 ppm, HKPG-treated cells) of the same molecule?
A: 1327 pg/mL

Q: And the PGE2 level ([6]; TBHQ 7.8 ppm, HKPG-treated cells)?
A: 1563 pg/mL

Q: And the PGE2 level ([6]; TBHQ 15.6 ppm, HKPG-treated cells)?
A: 1249 pg/mL

Q: And the PGE2 level ([6]; TBHQ 31.2 ppm, HKPG-treated cells)?
A: 1124 pg/mL

Q: And the PGE2 level ([6]; TBHQ 62.5 ppm, co-incubated with HKPG-treated cells (HKPG alone 1743, untreated 1579))?
A: 764 pg/mL

Q: And the IL-1b ([7]; TBHQ 1 ppm, HKPG-treated cells (HKPG alone 85, untreated 63))?
A: 88 pg/mL

Q: And the IL-1b [7, 10]?
A: 55 pg/mL

Q: What about the IL-1b [7, 11] of the same molecule?
A: 29 pg/mL

Q: What about the IL-6 ([8]; TBHQ 1 ppm, HKPG-treated cells (HKPG alone 1753, untreated 42)) of the same molecule?
A: 405 pg/mL

Q: And the IL-6 [8, 10]?
A: 100 pg/mL

Q: What about the IL-6 [8, 11] of the same molecule?
A: 23 pg/mL

Q: What about the TNF-α ([9]; TBHQ 1 ppm, HKPG-treated cells (HKPG alone 194, untreated 15)) of the same molecule?
A: 198 pg/mL

Q: What about the TNF-α [9, 10] of the same molecule?
A: 68 pg/mL

Q: What about the TNF-α [9, 11] of the same molecule?
A: 7 pg/mL

Q: With `COc1cc(CCC(=O)CC(=O)CCc2ccc(O)c(OC)c2)ccc1O` [Tetra-hydrocurcumin] as the molecule, how does the “BEC50 of Active + 50 ppm TBHQ” value [1] read?
A: 1.22 ppm

Q: What about the “BEC50 of Active Alone” value [1] of the same molecule?
A: >2500 ppm

Q: `Oc1cc(Cl)ccc1Oc1ccc(Cl)cc1Cl` [Triclosan, reference compound] was tested. Which “BEC50 of Active + 50 ppm TBHQ” value [1] did it give?
A: <0.03 ppm

Q: And the “BEC50 of Active Alone” value [1]?
A: 0.49 ppm

Q: How did the “BEC50 of Active + 50 ppm TBHQ” value [1] turn out when `O=C([O-])CC(O)(CC(=O)[O-])C(=O)[O-].O=C([O-])CC(O)(CC(=O)[O-])C(=O)[O-].[Zn+2].[Zn+2].[Zn+2]` [Zinc Citrate] was run?
A: 19.5 ppm

Q: What about the “BEC50 of Active Alone” value [1] of the same molecule?
A: 78.1 ppm
